In brackets after ≈: the same amount, converted by molar mass.
Key:
[1] = Cytotoxicity against human WM164 cells after 48 hrs by sulforhodamine B assay; assay type: functional, cell-based; details: Homo sapiens, WM164, 48 h
[2] = Cytotoxicity against mouse B16-F1 cells after 48 hrs by sulforhodamine B assay; assay type: functional, cell-based; details: Mus musculus, B16-F1, 48 h
PPC-1 = experiment: Cytotoxicity against human PPC1 cells after 48 hrs by sulforhodamine B assay; assay type: functional, cell-based; details: Homo sapiens, PPC-1, 48 h
[3] = Cytotoxicity against human multidrug-resistant MDA-MB-435/LCCMDR1 cells after 48 hrs by sulforhodamine B assay; assay type: functional, cell-based; details: MDA-MB-435, 48 h
LNCaP = experiment: Cytotoxicity against human LNCAP cells after 48 hrs by sulforhodamine B assay; assay type: functional, cell-based
A-375 = experiment: Cytotoxicity against human A375 cells after 48 hrs by sulforhodamine B assay; assay type: functional, cell-based; details: Homo sapiens, A-375, 48 h
PC-3 = experiment: cells; details: Homo sapiens, PC-3, 48 h
DU-145 = experiment: cells; details: Homo sapiens, DU-145, 48 h
MDA-MB-435 = experiment: cells; details: Homo sapiens, MDA-MB-435, 48 h
Mus musculus [4] = experiment: Toxicity in mouse B16-F1 cells xenografted C57/BL mouse assessed as reduction of body weight at 10 mg/kg, ip administered 7 days after tumor inoculation qd for 14 days; assay type: organism-based; parameters: dose 10 mg/kg, route intraperitoneal; details: in vivo
Mus musculus [5] = experiment: Toxicity in mouse B16-F1 cells xenografted C57/BL mouse assessed as reduction of body weight at 30 mg/kg, ip administered 7 days after tumor inoculation qd for 14 days; assay type: organism-based; parameters: dose 30 mg/kg, route intraperitoneal; details: in vivo
[6] = Aqueous solubility of the compound in buffer at pH 7 after 24 hrs by shake-flask method; assay type: physicochemical
[7] = Aqueous solubility of the compound in water after 24 hrs by shake-flask method; assay type: physicochemical
[8] = Antitumor activity against mouse B16-F1 cells xenografted in C57/BL mouse assessed as reduction of tumor growth at 60 mg/kg, ip administered 7 days after tumor inoculation qd for 14 days; assay type: functional; parameters: scale not given: the % may be the effect or the level left; details: route intraperitoneal
Mus musculus [9] = experiment: Toxicity in mouse B16-F1 cells xenografted C57/BL mouse assessed as reduction of body weight at 60 mg/kg, ip administered 7 days after tumor inoculation qd for 14 days; assay type: organism-based; parameters: dose 60 mg/kg, route intraperitoneal; details: in vivo

| SMILES | IC50 (PC-3) | IC50 (DU-145) | IC50 [1] | IC50 [2] | IC50 (PPC-1) | IC50 [3] | IC50 (LNCaP) | IC50 (A-375) | IC50 (MDA-MB-435) | Activity (Mus musculus [4]) | Activity (Mus musculus [5]) | solubility thermodynamic at 24 h [6] | solubility thermodynamic at 24 h [7] | Activity [8] | Activity (Mus musculus [9]) |
| --- | --- | --- | --- | --- | --- | --- | --- | --- | --- | --- | --- | --- | --- | --- | --- |
| COc1ccc(-c2nc(C(=O)c3ccc(F)cc3)c[nH]2)cc1 |  |  |  |  |  |  |  |  | 30 nM | Non-toxic | Non-toxic |  |  |  |  |
| COc1cc(C(=O)c2csc(-c3ccc(N(C)C)cc3)n2)cc(OC)c1OC |  |  |  |  |  |  |  |  |  |  |  | 0.909 µg/mL (≈ 2.28 µM) | 0.833 µg/mL (≈ 2.09 µM) |  |  |
| COc1cc(C(=O)c2c[nH]c(-c3ccc(N(C)C)cc3)n2)cc(OC)c1OC | 92 nM | 95 nM | 80 nM | 361 nM | 67 nM |  | 58 nM | 82 nM |  |  |  | 48.9 µg/mL (≈ 128 µM) | 11.3 µg/mL (≈ 29.6 µM) |  |  |
| COc1ccc(/C=C\c2cc(OC)c(OC)c(OC)c2)cc1O [COMBRETASTATIN A4] |  |  |  |  |  |  |  |  |  |  |  | 1.04 µg/mL (≈ 3.29 µM) | 2.83 µg/mL (≈ 8.95 µM) |  |  |
| CN(C)/N=N/c1[nH]cnc1C(N)=O [DACARBAZINE] |  |  |  |  |  |  |  |  |  |  |  |  |  | 51% | Non-toxic |
| CC(=O)O[C@H]1C(=O)[C@@]2(C)[C@H]([C@H](OC(=O)c3ccccc3)[C@]3(O)C[C@H](OC(=O)[C@H](O)[C@@H](NC(=O)c4ccccc4)c4ccccc4)C(C)=C1C3(C)C)[C@]1(OC(C)=O)CO[C@@H]1C[C@@H]2O [PACLITAXEL] |  |  |  |  |  |  |  |  |  |  |  | 0.137 µg/mL (≈ 0.16 µM) | 0.021 µg/mL (≈ 0.0246 µM) |  |  |

Second part, led by results:

| IC50 (PC-3) | IC50 (DU-145) | SMILES | IC50 [1] | IC50 [2] | IC50 (PPC-1) | IC50 [3] | IC50 (LNCaP) | IC50 (A-375) | IC50 (MDA-MB-435) | Activity (Mus musculus [4]) | Activity (Mus musculus [5]) | solubility thermodynamic at 24 h [6] | solubility thermodynamic at 24 h [7] | Activity [8] | Activity (Mus musculus [9]) |
| --- | --- | --- | --- | --- | --- | --- | --- | --- | --- | --- | --- | --- | --- | --- | --- |
| 33 nM | 52 nM | COc1ccc(-c2ncc(C(=O)c3ccc(F)cc3)n2S(=O)(=O)c2ccccc2)cc1 | 43 nM | 71 nM | 32 nM | 38 nM | 31 nM | 36 nM | 30 nM |  |  |  |  |  |  |
| 76 nM | 64 nM | O=C(c1ccc(F)cc1)c1cnc(-c2ccc(Cl)cc2)n1S(=O)(=O)c1ccccc1 | 70 nM | 107 nM | 54 nM |  | 48 nM | 88 nM |  |  |  |  |  |  |  |
| 83 nM | 74 nM | CN(C)c1ccc(-c2ncc(C(=O)c3ccc(F)cc3)n2S(=O)(=O)c2ccccc2)cc1 | 56 nM | 242 nM | 48 nM |  | 56 nM | 55 nM |  |  |  |  |  |  |  |
| 10000 nM | 3310 nM | COc1ccc(-c2ncc(C(=O)c3ccc(F)cc3)n2S(=O)(=O)c2ccccc2)cc1OC | 1400 nM | 2000 nM | 1440 nM |  | 1920 nM | 960 nM |  |  |  |  |  |  |  |
| > 10000 nM | > 10000 nM | COc1cc(C(=O)c2cnc(-c3ccccc3C(F)(F)F)n2S(=O)(=O)c2ccccc2)cc(OC)c1OC | > 10000 nM | > 10000 nM | > 10000 nM |  | > 10000 nM | > 10000 nM |  |  |  |  |  |  |  |
| > 10000 nM | > 10000 nM | O=C(c1ccc(F)cc1)c1cnc(-c2ccccc2C(F)(F)F)n1S(=O)(=O)c1ccccc1 | > 10000 nM | > 10000 nM | > 10000 nM |  | > 10000 nM | > 10000 nM |  |  |  |  |  |  |  |
| 75 nM | 58 nM | O=C(c1ccc(F)cc1)c1cnc(-c2ccc(OCc3ccccc3)cc2)n1S(=O)(=O)c1ccccc1 | 48 nM | 110 nM | 38 nM |  | 35 nM | 64 nM |  |  |  |  |  |  |  |
